Results: patent US8486863B2, “Activators of lateral root formation” (VIB VZW, priority 2006, dated 2013)

Experiments:
auxin signaling mutants [1] = test: Effect of activators on lateral root density of auxin signaling mutants (Table 2); assay type: in vivo, Arabidopsis thaliana; conditions: 30 uM
From the text: (§1) Afb1, Afb2, Afb3 and the triple mutant Tirlafb2afb3 were described by Dhamasiri et al. (2005). Tir1 was described by Ruegger et al., (1998); 1aa28 by Rogg et al., (2001); Tir7-1 by Ruegger et al., (1997); the Cyp79b2b3 double mutant by Ljung et al. (2005); the arf7arf19 double mutant by Fukaki et al., (2005); Aux1 by Bennett et al., (1996); Xbat32 by Nodzon et al., (2004), Axr1-12 by Timpte et al., (1995), Slr1 by Fukaki et al., 2002 and Axr3-1 by Collet et al., (2000) and the mutants were obtained from the publishing authors.
(§2) For phenotypic analysis, all mutants were grown on vertically oriented square plates (Greiner Labortechnik, Austria) with solid medium derived from standard MS medium. The plates were put in a growth chamber under continuous light (110 μE.m2.s1 photosynthetically active radiation, supplied by cool-white fluorescent tungsten tubes; Osram) at 22° C. Three days after germination, the mutant plants were transferred to medium supplemented with compounds and were left to grow for another 7 days. After this, root length and number of lateral roots were counted using ImageJ 1.34 freeware.

auxin signaling mutants [2] = test: Effect of A12 and NAA on lateral root density and root length of auxin signaling mutants (Table 1); assay type: in vivo, Arabidopsis thaliana; design: Root length: unit not given here; conditions: 30 uM
From the text: as §1, §2
DMSO is used as negative control.

[3] = tested on: Wild-type Arabidopsis thaliana; test: Dose-response analysis of lateral root density and root length; assay type: in vivo; conditions: dose-response, FIG. 3
Description: FIG. 3: Dose-response analysis of class 1 (upper panel) and class 2 (lower panel) activators. Wild-type Arabidopsis thaliana seeds were germinated under standard conditions on agar plates. After 3 days of germination, seedlings were transferred to agar plates containing compound at different concentrations. Lateral root density was measured 10 days after germination. Bars represent standard errors.
FIG. 4: Dose-response analysis of A2, A11, A12, A14 and NAA. Wild-type Arabidopsis thaliana seeds were germinated under standard conditions on agar plates. After 3 days of germination, seedlings were transferred to agar plates containing compound at different concentrations and 1% DMSO. Plants transferred to agar plates containing 1% DMSO and no compound were used as controls. Lateral root density (left panels) and root length (right panels) were measured 10 days after germination. Bars represent standard errors.
For further phenotypic analysis, all plants were grown on vertically oriented square plates (Greiner Labortechnik, Austria) with solid medium derived from standard MS medium under the same conditions. 3 DAG plants were transferred to medium supplemented with compounds and were left to grow for another 7 days. After this, root length and number of LRs were counted using ImageJ 1.34 freeware.
As a subsequent step, the phenotypic effect of the 16 selected activators was determined in a dose-response analysis in which LR density (number of LRs per cm) was quantified (FIG. 3). Based upon potency and structure, two different classes of activators could be identified.

[4] = tir TM (Tir1afb2afb3 triple mutant)

`NC(=S)NN=Cc1ccc(-c2cccc(C(F)(F)F)c2)o1` [A12, 5-[3-(trifluoromethyl)phenyl]-2-furaldehyde thiosemicarbazone] gave a lateral root density (auxin signaling mutants [1]; Afb1-1) of 23.19 LR/cm, a lateral root density (auxin signaling mutants [1]; Afb2-1) of 10.44 LR/cm and a lateral root density (auxin signaling mutants [1]; Afb3-1) of 21.05 LR/cm. It also gave a lateral root density (auxin signaling mutants [1]; Arf7Arf19) of 0.94 LR/cm, a lateral root density (auxin signaling mutants [1]; Arf16) of 10.94 LR/cm and a lateral root density (auxin signaling mutants [1]; Arf17) of 15.09 LR/cm. The lateral root density (auxin signaling mutants [1]; Axrt-12) was 14.15 LR/cm, the lateral root density (auxin signaling mutants [1]; Cyp79) was 22.76 LR/cm and the lateral root density (auxin signaling mutants [1]; Iaa28-1) was 10.00 LR/cm. The lateral root density (auxin signaling mutants [1]; Tir7-1) was 27.42 LR/cm, the lateral root density (auxin signaling mutants [1]; TirTM) was 0.00 LR/cm and the LR density (auxin signaling mutants [2]; CDKB DN) was 9.09. The Root length (auxin signaling mutants [2]; CDKB DN) was 1.56, the Root length (auxin signaling mutants [2]; Col-0) was 2.24 and the LR density (auxin signaling mutants [2]; Ws) was 16.70. For the same compound, the Root length (auxin signaling mutants [2]; Ws) was 1.92, the LR density (auxin signaling mutants [2]; Xbat32) was 14.16 and the Root length (auxin signaling mutants [2]; Xbat32) was 2.44. It also gave an LR density (auxin signaling mutants [2]; afb1-1) of 15.55, a Root length (auxin signaling mutants [2]; afb1-1) of 1.86 and an LR density (auxin signaling mutants [2]; afb2-1) of 15.11. It also gave a Root length (auxin signaling mutants [2]; afb2-1) of 1.71, an LR density (auxin signaling mutants [2]; afb3-1) of 21.32 and a Root length (auxin signaling mutants [2]; afb3-1) of 2.17. The LR density (auxin signaling mutants [2]; arf7arf19 DM (double mutant)) was 1.73, the Root length (auxin signaling mutants [2]; arf7arf19 DM (double mutant)) was 3.45 and the LR density (auxin signaling mutants [2]; aux1) was 15.94. For the same compound, the Root length (auxin signaling mutants [2]; aux1) was 2.24, the LR density (auxin signaling mutants [2]; axr1-12) was 15.84 and the Root length (auxin signaling mutants [2]; axr1-12) was 1.62. It also gave an LR density (auxin signaling mutants [2]; axr5-1) of 14.10, a Root length (auxin signaling mutants [2]; axr5-1) of 3.40 and an LR density (auxin signaling mutants [2]; cyp79b2-3 DM (double mutant)) of 17.30. It also gave a Root length (auxin signaling mutants [2]; cyp79b2-3 DM (double mutant)) of 2.26, an LR density (auxin signaling mutants [2]; iaa28-1) of 8.85 and a Root length (auxin signaling mutants [2]; iaa28-1) of 3.39. The LR density (auxin signaling mutants [2]; lax3) was 15.27, the Root length (auxin signaling mutants [2]; lax3) was 2.48 and the LR density (auxin signaling mutants [2]; msg2-1) was 27.49. The Root length (auxin signaling mutants [2]; msg2-1) was 1.58, the LR density (auxin signaling mutants [2]; slr-1) was 0.00 and the Root length (auxin signaling mutants [2]; slr-1) was 1.90. It also gave an LR density (auxin signaling mutants [2]; tir1-1) of 13.38, a Root length (auxin signaling mutants [2]; tir1-1) of 2.34 and an LR density (auxin signaling mutants [2]; tir7-1) of 17.30. It also gave a Root length (auxin signaling mutants [2]; tir7-1) of 1.52, an LR density (auxin signaling mutants [2]; [4]) of 4.82 and a Root length (auxin signaling mutants [2]; [4]) of 2.60. For the same compound, the “potency as activator of LR development (LR density)” value [3] was “most potent activators of class 2”.
